Test results reported in PubChem BioAssay (NCI).
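Test compounds were applied to cells in 96-well plates for 48 hours at 5 doses. TGI marks complete inhibition of growth.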

Legend:
Assay in all cases: NCI-60 cell line screen, 48 h
786-0 renal = test system: 786-0 renal
A549 NSCLC = test system: A549 NSCLC
ACHN renal = test system: ACHN renal
BT-549 breast = test system: BT-549 breast
CCRF-CEM leukemia = test system: CCRF-CEM leukemia
COLO 205 colon = test system: COLO 205 colon
DU-145 prostate = test system: DU-145 prostate
EKVX NSCLC = test system: EKVX NSCLC
HCC-2998 colon = test system: HCC-2998 colon
HCT-116 colon = test system: HCT-116 colon
HCT-15 colon = test system: HCT-15 colon
HL-60(TB) leukemia = test system: HL-60(TB) leukemia
HOP-62 NSCLC = test system: HOP-62 NSCLC
HOP-92 NSCLC = test system: HOP-92 NSCLC
HS 578T breast = test system: HS 578T breast
HT29 colon = test system: HT29 colon
IGROV1 ovarian = test system: IGROV1 ovarian
KM12 colon = test system: KM12 colon
LOX IMVI melanoma = test system: LOX IMVI melanoma
M14 melanoma = test system: M14 melanoma
MALME-3M melanoma = test system: MALME-3M melanoma
MCF7 breast = test system: MCF7 breast
MDA-MB-231 breast = test system: MDA-MB-231 breast
MDA-MB-435 = test system: MDA-MB-435
MDA-N = test system: MDA-N
MOLT-4 leukemia = test system: MOLT-4 leukemia
NCI-H226 lung = test system: NCI-H226 lung
NCI-H23 lung = test system: NCI-H23 lung
NCI-H460 lung = test system: NCI-H460 lung
NCI-H522 lung = test system: NCI-H522 lung
NCI/ADR-RES ovarian = test system: NCI/ADR-RES ovarian
OVCAR-3 ovarian = test system: OVCAR-3 ovarian
OVCAR-4 ovarian = test system: OVCAR-4 ovarian
OVCAR-5 ovarian = test system: OVCAR-5 ovarian
OVCAR-8 ovarian = test system: OVCAR-8 ovarian
PC-3 prostate = test system: PC-3 prostate
RPMI-8226 leukemia = test system: RPMI-8226 leukemia
SF-268 CNS = test system: SF-268 CNS
SF-295 CNS = test system: SF-295 CNS
SF-539 CNS = test system: SF-539 CNS
SK-MEL-2 melanoma = test system: SK-MEL-2 melanoma
SK-MEL-28 melanoma = test system: SK-MEL-28 melanoma
SK-MEL-5 melanoma = test system: SK-MEL-5 melanoma
SK-OV-3 ovarian = test system: SK-OV-3 ovarian
SN12C renal = test system: SN12C renal
SNB-19 CNS = test system: SNB-19 CNS
SNB-75 CNS = test system: SNB-75 CNS
SR leukemia = test system: SR leukemia
SW-620 colon = test system: SW-620 colon
T-47D breast = test system: T-47D breast
TK-10 renal = test system: TK-10 renal
U251 CNS = test system: U251 CNS
UACC-257 melanoma = test system: UACC-257 melanoma
UACC-62 melanoma = test system: UACC-62 melanoma
UO-31 renal = test system: UO-31 renal
A498 renal = test system: A498 renal
CAKI-1 renal = test system: CAKI-1 renal
K-562 leukemia = test system: K-562 leukemia
RXF 393 renal = test system: RXF 393 renal

How did the TGI (786-0 renal) turn out when `COc1ccc(-n2sc3ncccc3c2=O)cc1` was run?
Its TGI is 32.3 µM.

What about the TGI (A549 NSCLC) of the same compound?
Its TGI is > 100 µM.

What about the TGI (ACHN renal) of the same compound?
Its TGI is 34.5 µM.

What about the TGI (BT-549 breast) of the same compound?
The TGI was 38.6 µM.

What about the TGI (CCRF-CEM leukemia) of the same compound?
Its TGI is > 100 µM.

And the TGI (COLO 205 colon)?
Its TGI is 35 µM.

And the TGI (DU-145 prostate)?
Its TGI is > 100 µM.

What about the TGI (EKVX NSCLC) of the same compound?
Its TGI is 28.4 µM.

And the TGI (HCC-2998 colon)?
The TGI was > 100 µM.

And the TGI (HCT-116 colon)?
Its TGI is 32.6 µM.

What about the TGI (HCT-15 colon) of the same compound?
Its TGI is 44.2 µM.

What about the TGI (HL-60(TB) leukemia) of the same compound?
The TGI was 41.5 µM.

And the TGI (HOP-62 NSCLC)?
Its TGI is 56.7 µM.

What about the TGI (HOP-92 NSCLC) of the same compound?
Its TGI is 58.6 µM.

What about the TGI (HS 578T breast) of the same compound?
Its TGI is 62.8 µM.

And the TGI (HT29 colon)?
Its TGI is 43 µM.

What about the TGI (IGROV1 ovarian) of the same compound?
The TGI was 61.2 µM.

What about the TGI (KM12 colon) of the same compound?
The TGI was 34.5 µM.

And the TGI (LOX IMVI melanoma)?
The TGI was > 100 µM.

What about the TGI (M14 melanoma) of the same compound?
Its TGI is 41.3 µM.

What about the TGI (MALME-3M melanoma) of the same compound?
Its TGI is 30.9 µM.

And the TGI (MCF7 breast)?
The TGI was 49.1 µM.

And the TGI (MDA-MB-231 breast)?
The TGI was 45.1 µM.

What about the TGI (MDA-MB-435) of the same compound?
The TGI was 66.7 µM.

What about the TGI (MDA-N) of the same compound?
The TGI was 40.7 µM.

And the TGI (MOLT-4 leukemia)?
The TGI was > 100 µM.

What about the TGI (NCI-H226 lung) of the same compound?
The TGI was > 100 µM.

What about the TGI (NCI-H23 lung) of the same compound?
The TGI was 36.8 µM.

And the TGI (NCI-H460 lung)?
Its TGI is > 100 µM.

What about the TGI (NCI-H522 lung) of the same compound?
The TGI was 46.4 µM.

And the TGI (NCI/ADR-RES ovarian)?
The TGI was 59.6 µM.

What about the TGI (OVCAR-3 ovarian) of the same compound?
Its TGI is 60.8 µM.

And the TGI (OVCAR-4 ovarian)?
Its TGI is > 100 µM.

And the TGI (OVCAR-5 ovarian)?
The TGI was 64.2 µM.

And the TGI (OVCAR-8 ovarian)?
The TGI was 70.3 µM.

And the TGI (PC-3 prostate)?
The TGI was 53.5 µM.

And the TGI (RPMI-8226 leukemia)?
Its TGI is > 100 µM.

What about the TGI (SF-268 CNS) of the same compound?
Its TGI is 58.3 µM.

What about the TGI (SF-295 CNS) of the same compound?
Its TGI is > 100 µM.

What about the TGI (SF-539 CNS) of the same compound?
The TGI was 37.7 µM.

And the TGI (SK-MEL-2 melanoma)?
Its TGI is > 100 µM.

What about the TGI (SK-MEL-28 melanoma) of the same compound?
The TGI was 44.3 µM.

And the TGI (SK-MEL-5 melanoma)?
The TGI was 44.6 µM.

What about the TGI (SK-OV-3 ovarian) of the same compound?
Its TGI is > 100 µM.

And the TGI (SN12C renal)?
The TGI was 91.3 µM.

And the TGI (SNB-19 CNS)?
The TGI was > 100 µM.

What about the TGI (SNB-75 CNS) of the same compound?
The TGI was 51 µM.

And the TGI (SR leukemia)?
Its TGI is 55.1 µM.

What about the TGI (SW-620 colon) of the same compound?
The TGI was 79.6 µM.

And the TGI (T-47D breast)?
Its TGI is 44.1 µM.

What about the TGI (TK-10 renal) of the same compound?
The TGI was 33.5 µM.

And the TGI (U251 CNS)?
The TGI was 44.6 µM.

And the TGI (UACC-257 melanoma)?
The TGI was 34.2 µM.

And the TGI (UACC-62 melanoma)?
Its TGI is > 100 µM.

What about the TGI (UO-31 renal) of the same compound?
The TGI was 33.7 µM.

With `CCOC(=O)Oc1ccc2c(c1)c(=O)c1c(NCCN(CC)CC)ccc3nnn2c31` as the compound, how does the TGI (786-0 renal) read?
The TGI was 13 µM.

What about the TGI (A498 renal) of the same compound?
The TGI was 21.5 µM.

What about the TGI (A549 NSCLC) of the same compound?
Its TGI is 12.4 µM.

What about the TGI (ACHN renal) of the same compound?
The TGI was 11.6 µM.

And the TGI (BT-549 breast)?
The TGI was 23.1 µM.

And the TGI (CAKI-1 renal)?
The TGI was 2.63 µM.

What about the TGI (CCRF-CEM leukemia) of the same compound?
Its TGI is 1.54 µM.

What about the TGI (COLO 205 colon) of the same compound?
The TGI was 14.9 µM.

What about the TGI (DU-145 prostate) of the same compound?
Its TGI is 8.29 µM.

What about the TGI (EKVX NSCLC) of the same compound?
Its TGI is 19.9 µM.

What about the TGI (HCC-2998 colon) of the same compound?
Its TGI is 17.4 µM.

What about the TGI (HCT-116 colon) of the same compound?
Its TGI is 12.6 µM.

And the TGI (HCT-15 colon)?
Its TGI is 16.6 µM.

What about the TGI (HOP-62 NSCLC) of the same compound?
The TGI was 7.22 µM.

What about the TGI (HOP-92 NSCLC) of the same compound?
The TGI was 21.4 µM.

And the TGI (HS 578T breast)?
The TGI was 22.9 µM.

What about the TGI (HT29 colon) of the same compound?
The TGI was 11.7 µM.

And the TGI (IGROV1 ovarian)?
The TGI was 21.7 µM.

And the TGI (K-562 leukemia)?
The TGI was > 36.3 µM.

What about the TGI (KM12 colon) of the same compound?
The TGI was 14.9 µM.

What about the TGI (LOX IMVI melanoma) of the same compound?
The TGI was 4.16 µM.

And the TGI (M14 melanoma)?
Its TGI is 19.1 µM.

And the TGI (MALME-3M melanoma)?
Its TGI is 22 µM.

What about the TGI (MCF7 breast) of the same compound?
Its TGI is 12 µM.

And the TGI (MDA-MB-231 breast)?
Its TGI is 17.6 µM.

And the TGI (MDA-MB-435)?
Its TGI is 16.4 µM.

What about the TGI (MDA-N) of the same compound?
The TGI was 15.6 µM.

What about the TGI (MOLT-4 leukemia) of the same compound?
The TGI was 13.6 µM.

What about the TGI (NCI-H226 lung) of the same compound?
Its TGI is 7.71 µM.

And the TGI (NCI-H23 lung)?
Its TGI is 18.1 µM.

And the TGI (NCI-H460 lung)?
The TGI was 9.44 µM.

What about the TGI (NCI-H522 lung) of the same compound?
The TGI was 6.61 µM.

And the TGI (NCI/ADR-RES ovarian)?
The TGI was 18.9 µM.

And the TGI (OVCAR-3 ovarian)?
The TGI was 19.7 µM.

What about the TGI (OVCAR-4 ovarian) of the same compound?
The TGI was 11.9 µM.

What about the TGI (OVCAR-5 ovarian) of the same compound?
The TGI was 22.7 µM.

And the TGI (OVCAR-8 ovarian)?
Its TGI is 14.3 µM.

What about the TGI (PC-3 prostate) of the same compound?
The TGI was 15.1 µM.

What about the TGI (RPMI-8226 leukemia) of the same compound?
The TGI was 4.86 µM.

And the TGI (RXF 393 renal)?
Its TGI is 18.8 µM.

And the TGI (SF-268 CNS)?
The TGI was 17.1 µM.

And the TGI (SF-295 CNS)?
The TGI was 19.5 µM.

What about the TGI (SF-539 CNS) of the same compound?
Its TGI is 13.5 µM.

What about the TGI (SK-MEL-2 melanoma) of the same compound?
Its TGI is 27 µM.

What about the TGI (SK-MEL-28 melanoma) of the same compound?
The TGI was 24.1 µM.

And the TGI (SK-MEL-5 melanoma)?
Its TGI is 16.1 µM.

What about the TGI (SK-OV-3 ovarian) of the same compound?
The TGI was 22.6 µM.

And the TGI (SN12C renal)?
The TGI was 15.1 µM.

What about the TGI (SNB-19 CNS) of the same compound?
Its TGI is 15.9 µM.

And the TGI (SR leukemia)?
The TGI was 12.9 µM.

What about the TGI (SW-620 colon) of the same compound?
The TGI was 13.2 µM.

What about the TGI (T-47D breast) of the same compound?
Its TGI is 29.2 µM.

What about the TGI (TK-10 renal) of the same compound?
The TGI was 16.2 µM.

What about the TGI (U251 CNS) of the same compound?
Its TGI is 17 µM.

And the TGI (UACC-257 melanoma)?
Its TGI is 21.1 µM.

What about the TGI (UACC-62 melanoma) of the same compound?
Its TGI is 24.3 µM.

And the TGI (UO-31 renal)?
Its TGI is 1.24 µM.
